Laboratory results taken from patent US20250249007A1, “PHARMACEUTICAL COMPOSITIONS OF ENSIFENTRINE FOR CHRONIC OBSTRUCTIVE PULMONARY DISEASE” (Verona Pharma PLC, priority 2024, published 2025).

Experiments:
[1] = Dose normalized steady-state AUCtau in non-COPD subjects with and without hepatic impairment; format: in vivo, human; conditions: for AUC: human, plasma, inhaled, 3 mg, dose normalized to 3 mg, FIG. 3
Procedure: The dose normalized steady-state AUCtau for a 3 mg dose in non-COPD subjects with and without hepatic impairment is shown in FIG. 3. As described in FIG. 3 the AUCtau,ss of healthy subjects was from about 5000 pg/mL*h to about 9000 pg/mL*h. The AUCtau,ss of subjects with moderate hepatic impairment was about 4000 pg/mL*h to about 11000 pg/mL*h. The AUCtau,ss of subjects with severe hepatic impairment was about 5500 pg/mL*h to about 6500 pg/mL*h. […] The highest dose normalized AUCtau,ss observed in this subset was for a subject with moderate hepatic impairment, but this was not the highest exposure in the overall dataset as it was exceeded by two other subjects with COPD.

[2] = popPK model simulation of ensifentrine PK by renal function (virtual population of COPD subjects); parameters: species or system human; conditions: nebulization of 3 mg, simulated
Procedure: Plasma concentrations of ensifentrine for the assessment of pharmacokinetic (PK) parameters were measured using validated bioanalytical methods for ensifentrine in human plasma with LLOQ of 5 pg/mL. Samples were taken on the following schedule: • Week 6: 1.0 h (±0.5 h) and 2.5 h (±0.5 h) (even sites) or 1.5 h and 4 h (±1 h) (odd sites); • Week 12: pre-dose (−0.5 h), 4 to 6 h, and 8 to 12 h (even sites) or 0.5 h (±0.25 h), 3 h (±0.5 h), and 6 to 8 h (odd sites); • Week 24: pre-dose (−0.5 h) and 1.5 h (even sites) or pre-dose (−0.5 h) and 1 h (±0.5 h) (odd sites)
Based on the samples taken during the trial, PK data was modelled for COPD patients with varying levels of renal function:
A two-compartment model with first-order input and first-order elimination from the central compartment was fit to the plasma concentration-time data of ensifentrine using NONMEM® version 7.4.4. Different absorption functions and compartmental structures were explored. […]
The final model was evaluated using goodness of fit plots, bootstrap analysis, and visual predictive checks (VPCs). […]
Subjects with normal renal function to mild renal impairment are defined as those individuals with an absolute estimated glomerular filtration rate (aEGFR) of greater than or equal to 60 mL/min. […] Individual subject concentrations were simulated using NONMEM version 7.4.3, and PK parameters were calculated using R version 3.4.0. […]

[3] = test system: patients with moderate to severe COPD; assay: Clinical study of nebulized ensifentrine versus placebo in COPD: average FEV1 AUC0-12h at week 12; format: in vivo, human
Procedure: A clinical study was conducted to determine the efficacy of ensifentrine in treating COPD compared with placebo. Ensifentrine was administered by nebulizer at a dose of 3 mg twice daily (BID) for 24 weeks. The study was a multicenter, randomized, double-blind, parallel group, placebo-controlled trial with around 800 patients and 5:3 randomization.
The study population included patients aged 40-80 years with moderate to severe COPD (FEV1 30%-70% p.n., FEV1/forced vital capacity (FVC) ratio<0.7, with mMRC≥2). The randomization stratified (a) the use of stable background maintenance LAMA or LABA therapy use (approx. 50% yes or no) and (b) cigarette smoking (current or former). Inhaled corticosteroid (ICS) maintenance therapy was permitted in up to 20% of patients under certain provisions.
The primary endpoint of the study was change from baseline in average FEV1 area under the curve (AUC0-12h) […] at week 12; morning trough FEV1 at week 12; and other endpoints including moderate/severe COPD exacerbations frequency over 24 weeks.
Baseline FEV1 is the mean of the two measurements taken before study medication on the day of first dosing, i.e., ≤40 minutes and just prior to dosing, both pre-dose on day 1. Average FEV1 AUC0-12h is defined as area under the curve over 12 h of the FEV1, divided by 12 h.
The investigational product and placebo were provided in 2.5 mL unit dose format in an ampule and administered via a nebulizer. The formulation of the investigational product (ensifentrine suspension formulation comprising crystalline polymorph Form I of ensifentrine) and placebo are shown in Table 2.

## COc1cc2c(cc1OC)-c1c/c(=N\c3c(C)cc(C)cc3C)n(CCNC(N)=O)c(=O)n1CC2 [Ensifentrine, N-(2-{(2E)-9,10-dimethoxy-4-oxo-2-[(2,4,6-trimethylphenyl)imino]-6,7-dihydro-2H-pyrimido[6,1-a]isoquinolin-3(4H)-yl}ethyl)urea]
[1]; healthy subjects
  AUC: 5 to 9 ng·h/mL
[1]; subjects with moderate hepatic impairment (n=10)
  AUC: 4 to 11 ng·h/mL
[1]; subjects with severe hepatic impairment (n=2)
  AUC: 5.5 to 6.5 ng·h/mL
[1]; moderate (n=10) or severe (n=2) hepatic impairment
  Exposure (AUC) in hepatic impairment versus healthy subjects: comparable to healthy subjects
[2]
  AUC ratio aEGFR < 60 mL/min: ≥60 mL/min: 1.30
  Cmax ratio aEGFR < 60 mL/min: ≥60 mL/min: 1.16
[3]; 3 mg BID by nebulizer, week 12, n = 498
  Average FEV1 (AUC)0-12 h post-dose at Week 12: Change from Baseline, CFB Least Squares Mean (95% CI): 48.2 (30.0, 66.5) mL
[3]; 3 mg BID by nebulizer, week 12, versus placebo
  Average FEV1 (AUC)0-12 h post-dose at Week 12: Placebo-corrected CFB LS Mean Diff. (95% CI): 93.9 (64.5, 123.3) mL
[3]; individuals with normal renal function to mild renal impairment and subjects with moderate renal impairment
  Improvement in lung function: statistically significant improvement in lung function
